Assay results from patent US20080234202A1, “Non-natural amino acids and neurotensin analogues” (priority 2004, published 2008).
Where a SMILES comes first, the peptide text is derived from it. [ ]: non-standard residue; d: D form. The star is where a group is joined. Tle = CC(C)(C)[C@H](N)C(=O)O; X1 = C[C@@H](CCCCCN)C(=O)*

Assays:
[1] = Acute toxicity, clinical observation and maximum tolerated dose in rats; type: in vivo, rat
Procedure: During the 2 and 24 hour post-dosing clinical observation periods, measurements of core body temperatures were taken.

mouse bone marrow cells = experiment: Micronucleus study; type: in vivo; details: oral, CD-1 mice; initial data
Procedure: Genetic Toxicology. […] Experimental protocols are as follows.
In the micronucleus study, 90 CD-1 mice used in the study consisted of 10/sex/group in Groups 1-4 (control, low-, mid-, and high-dose) and 5/sex in the positive control group. Test peptide as administered orally, the positive control, Cyclophosphamide at 80 mg/kg, as administered orally. Approximately 24 and 48 hours after dosing, mice were killed and bone marrow obtained from both femurs. A slide of a bone marrow suspension was prepared, stained with Wright-Giemsa stain, dried, and scored blind. The number of polychromatic erythrocytes (PCE) among the total erythrocytes (PCE+normochromatic erythrocytes (NCE)) were determined for each animal by counting at least 200 erythrocytes. The number of micronucleated polychromatic erythrocytes (MPCE) then were scored for 2000 PCE per animal. A positive result was obtained if there is a positive dose-response trend or statistically significant increase in the number of MPCE at one or more dose levels compared to controls.

[2] = Blood and plasma pharmacokinetics of ABS201 in rats
Source text: At selected time points, blood was removed or brain harvested and the concentration of the peptide analog determined using LC/MS/MS.
These samples were then used for the determination of plasma and brain drug levels by LC/MS/MS for estimating BBB penetration and pharmacokinetic parameters.

[3] = Procedure: These samples were used for the determination of plasma drug by LC/MS/MS for estimating pharmacokinetic parameters and segmental absorption. The bioavailability of intra-stomach, intra-duodenum, intra-jejunum, intra-colon administration relative to intravenous administration and gavage was calculated.
[4] = whole blood, 5 or 30 min at 37° C.
[5] = 5 or 30 min incubation at 37° C.
[6] = target: hERG (human ether-a-go-go related gene) channels (Homo sapiens, UniProt Q12809); details: HEK293, 35±2° C.; initial results
hERG (human ether-a-go-go related gene) channels, sequence (Q12809 whole entry): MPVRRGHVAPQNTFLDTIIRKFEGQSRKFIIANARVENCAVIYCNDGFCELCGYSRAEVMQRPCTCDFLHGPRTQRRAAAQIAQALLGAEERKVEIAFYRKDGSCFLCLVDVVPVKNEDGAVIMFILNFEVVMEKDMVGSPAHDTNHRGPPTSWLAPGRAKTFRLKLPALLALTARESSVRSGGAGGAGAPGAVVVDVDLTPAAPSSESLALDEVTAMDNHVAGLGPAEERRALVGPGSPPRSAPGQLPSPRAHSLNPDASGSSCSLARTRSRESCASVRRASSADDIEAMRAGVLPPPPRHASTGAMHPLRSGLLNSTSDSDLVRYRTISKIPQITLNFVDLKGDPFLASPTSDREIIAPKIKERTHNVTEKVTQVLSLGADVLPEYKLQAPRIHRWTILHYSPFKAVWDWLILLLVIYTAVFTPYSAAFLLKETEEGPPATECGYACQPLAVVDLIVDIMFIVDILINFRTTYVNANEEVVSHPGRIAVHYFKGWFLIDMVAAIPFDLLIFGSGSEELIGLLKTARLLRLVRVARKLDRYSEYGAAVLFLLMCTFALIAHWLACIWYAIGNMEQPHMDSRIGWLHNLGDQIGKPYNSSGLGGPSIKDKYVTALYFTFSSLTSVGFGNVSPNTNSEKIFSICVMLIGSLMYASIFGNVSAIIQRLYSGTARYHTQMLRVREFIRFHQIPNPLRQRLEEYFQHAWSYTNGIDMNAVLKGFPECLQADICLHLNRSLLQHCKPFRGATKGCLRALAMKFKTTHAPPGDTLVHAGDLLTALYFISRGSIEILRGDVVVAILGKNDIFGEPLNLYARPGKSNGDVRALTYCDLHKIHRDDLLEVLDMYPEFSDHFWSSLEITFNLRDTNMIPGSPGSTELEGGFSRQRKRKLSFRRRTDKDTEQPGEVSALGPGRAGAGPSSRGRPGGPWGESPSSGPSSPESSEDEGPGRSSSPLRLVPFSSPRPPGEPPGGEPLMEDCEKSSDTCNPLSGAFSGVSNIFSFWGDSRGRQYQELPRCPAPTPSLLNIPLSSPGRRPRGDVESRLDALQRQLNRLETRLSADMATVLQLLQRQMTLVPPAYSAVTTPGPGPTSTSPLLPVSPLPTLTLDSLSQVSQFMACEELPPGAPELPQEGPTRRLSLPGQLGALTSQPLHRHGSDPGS
Procedure: hERG Assay. The objective of the hERG study is to assess the effects of the test article on the rapidly activating inward rectifying potassium current (IKr) conducted by hERG (human ether-a-go-go related gene) channels stably expressed in a HEK293 cell line. The method used is as follows. HEK293 cells, stably transfected with hERG cDNA, were used in the study. All experiments were performed at near-physiological temperature (35±2° C.). A positive control (60 nM terfenadine) was applied to two cells (n≧2). Cells were be transferred to the recording chamber and superfused with HB-PS solution. The recording chamber and bathing solution were maintained at a temperature of 35±2° C. using a combination of in-line solution pre-heater, chamber floor heater, and feedback temperature controller. Bath temperature were measured using a thermistor probe.
Patch pipettes were made from glass capillary tubing using a P-97 micropipette puller (Sutter Instruments, Calif.). A commercial patch clamp amplifier was used for whole cell recordings. Before digitization, current records were low-pass filtered at one-fifth of the sampling frequency.
Cells stably expressing hERG were held at −80 mV.

CYP1A2 = target: T1, CYP1A2 (Homo sapiens, UniProt P05177); experiment: Liver CYP screening: CYP1A2; details: 10^−3, 10^−2, 0.1 M
T1 sequence (P05177 1-516): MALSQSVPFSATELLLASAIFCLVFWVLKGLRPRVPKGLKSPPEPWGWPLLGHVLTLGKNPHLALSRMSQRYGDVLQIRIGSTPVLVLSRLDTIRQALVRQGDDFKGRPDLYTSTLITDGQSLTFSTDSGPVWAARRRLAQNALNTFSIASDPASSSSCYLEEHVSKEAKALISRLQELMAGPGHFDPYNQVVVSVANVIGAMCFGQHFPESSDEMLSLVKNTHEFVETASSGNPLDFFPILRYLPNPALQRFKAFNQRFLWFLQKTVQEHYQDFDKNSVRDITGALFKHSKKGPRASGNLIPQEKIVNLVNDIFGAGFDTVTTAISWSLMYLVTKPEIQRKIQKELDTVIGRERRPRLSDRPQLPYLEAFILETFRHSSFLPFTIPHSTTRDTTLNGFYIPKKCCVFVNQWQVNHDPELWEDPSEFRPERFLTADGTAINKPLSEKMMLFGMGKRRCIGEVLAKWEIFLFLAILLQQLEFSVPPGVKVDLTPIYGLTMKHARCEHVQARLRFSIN
Source text: (§1) Liver Receptor Screening (Stanford Research Institute Study B213-06).

CYP2B6 = target: T2, CYP2B6 (Homo sapiens, UniProt P20813); experiment: Liver CYP screening: CYP2B6; details: 10^−3, 10^−2, 0.1 M
T2 sequence (P20813 1-491): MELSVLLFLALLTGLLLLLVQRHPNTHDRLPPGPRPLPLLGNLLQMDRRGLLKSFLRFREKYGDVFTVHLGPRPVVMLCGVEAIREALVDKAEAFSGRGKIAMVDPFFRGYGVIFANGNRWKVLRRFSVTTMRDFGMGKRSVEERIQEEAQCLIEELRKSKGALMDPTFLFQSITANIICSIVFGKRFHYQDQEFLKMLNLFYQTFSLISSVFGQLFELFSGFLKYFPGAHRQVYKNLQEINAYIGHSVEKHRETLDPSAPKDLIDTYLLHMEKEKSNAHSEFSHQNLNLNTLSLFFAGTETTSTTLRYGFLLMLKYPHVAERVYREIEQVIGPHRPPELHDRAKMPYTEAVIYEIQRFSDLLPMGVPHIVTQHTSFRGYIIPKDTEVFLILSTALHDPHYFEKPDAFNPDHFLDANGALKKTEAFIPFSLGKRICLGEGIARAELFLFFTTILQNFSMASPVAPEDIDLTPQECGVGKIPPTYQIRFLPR
Source text: as §1

CYP2C9 = CYP2C9 (Homo sapiens, UniProt P11712); experiment: Liver CYP screening: CYP2C9; details: 10^−3, 10^−2, 0.1 M
CYP2C9, sequence (P11712 whole entry): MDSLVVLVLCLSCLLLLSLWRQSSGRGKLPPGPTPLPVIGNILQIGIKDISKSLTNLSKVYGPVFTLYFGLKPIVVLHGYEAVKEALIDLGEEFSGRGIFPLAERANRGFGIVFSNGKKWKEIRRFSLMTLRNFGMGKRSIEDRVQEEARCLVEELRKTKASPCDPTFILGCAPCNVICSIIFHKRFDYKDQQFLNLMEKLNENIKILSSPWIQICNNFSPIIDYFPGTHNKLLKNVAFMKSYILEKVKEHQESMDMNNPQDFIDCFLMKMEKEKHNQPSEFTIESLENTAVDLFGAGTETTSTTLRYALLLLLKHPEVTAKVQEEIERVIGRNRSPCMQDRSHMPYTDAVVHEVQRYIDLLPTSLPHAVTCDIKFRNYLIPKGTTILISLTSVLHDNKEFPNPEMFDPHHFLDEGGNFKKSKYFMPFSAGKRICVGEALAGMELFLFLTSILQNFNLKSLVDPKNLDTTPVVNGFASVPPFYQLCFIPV
Source text: as §1

CYP2D6 = CYP2D6 (Homo sapiens, UniProt P10635); experiment: Liver CYP screening: CYP2D6; details: 10^−3, 10^−2, 0.1 M
CYP2D6, sequence (P10635 whole entry): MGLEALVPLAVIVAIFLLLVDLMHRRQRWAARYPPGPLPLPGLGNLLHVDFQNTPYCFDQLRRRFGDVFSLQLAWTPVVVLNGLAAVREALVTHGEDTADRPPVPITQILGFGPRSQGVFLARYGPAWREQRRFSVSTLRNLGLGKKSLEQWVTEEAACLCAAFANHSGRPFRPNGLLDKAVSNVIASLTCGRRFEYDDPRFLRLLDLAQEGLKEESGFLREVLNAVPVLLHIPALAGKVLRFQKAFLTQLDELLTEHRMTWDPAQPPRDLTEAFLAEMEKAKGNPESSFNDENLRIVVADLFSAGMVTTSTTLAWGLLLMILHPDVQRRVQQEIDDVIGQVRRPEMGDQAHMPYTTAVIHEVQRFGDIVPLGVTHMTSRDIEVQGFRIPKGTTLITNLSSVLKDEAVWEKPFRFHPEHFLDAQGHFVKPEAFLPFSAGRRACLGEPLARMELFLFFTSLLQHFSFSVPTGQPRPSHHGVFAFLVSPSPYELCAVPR
Source text: as §1

CYP3A4 = CYP3A4 (Homo sapiens, UniProt P08684); experiment: Liver CYP screening: CYP3A4; details: 10^−3, 10^−2, 0.1 M
CYP3A4, sequence (P08684 whole entry): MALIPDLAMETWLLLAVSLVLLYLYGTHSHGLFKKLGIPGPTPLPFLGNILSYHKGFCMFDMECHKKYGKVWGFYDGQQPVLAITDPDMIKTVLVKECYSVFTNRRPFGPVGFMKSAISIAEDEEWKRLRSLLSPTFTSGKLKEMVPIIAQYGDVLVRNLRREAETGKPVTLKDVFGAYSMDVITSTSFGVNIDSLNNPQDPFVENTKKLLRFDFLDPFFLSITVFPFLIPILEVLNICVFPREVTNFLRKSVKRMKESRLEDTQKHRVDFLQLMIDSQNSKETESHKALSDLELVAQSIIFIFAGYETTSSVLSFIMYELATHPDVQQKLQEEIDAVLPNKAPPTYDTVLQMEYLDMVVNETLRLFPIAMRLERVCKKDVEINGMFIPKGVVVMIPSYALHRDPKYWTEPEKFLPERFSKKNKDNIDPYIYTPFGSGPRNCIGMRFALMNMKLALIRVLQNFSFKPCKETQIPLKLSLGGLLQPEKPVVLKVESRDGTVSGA
Source text: as §1

CYP2C19 = CYP2C19 (Homo sapiens, UniProt P33261); experiment: Liver CYP screening: CYP2C19; details: 10^−3, 10^−2, 0.1 M
CYP2C19, sequence (P33261 whole entry): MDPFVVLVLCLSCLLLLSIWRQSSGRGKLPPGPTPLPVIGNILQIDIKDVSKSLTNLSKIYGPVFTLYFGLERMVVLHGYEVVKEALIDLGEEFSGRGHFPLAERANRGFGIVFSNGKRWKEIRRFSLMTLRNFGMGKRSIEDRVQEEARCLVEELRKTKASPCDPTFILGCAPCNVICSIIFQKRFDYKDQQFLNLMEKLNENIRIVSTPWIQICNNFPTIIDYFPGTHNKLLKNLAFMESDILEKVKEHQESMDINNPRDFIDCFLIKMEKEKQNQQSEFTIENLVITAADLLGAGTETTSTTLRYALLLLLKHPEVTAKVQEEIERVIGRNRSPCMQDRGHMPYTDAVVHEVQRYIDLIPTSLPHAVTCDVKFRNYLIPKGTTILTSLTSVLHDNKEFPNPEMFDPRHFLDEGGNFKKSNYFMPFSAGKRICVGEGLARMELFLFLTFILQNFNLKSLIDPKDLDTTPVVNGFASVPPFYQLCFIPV
Source text: as §1

[7] = Catalepsy, horizontal bar test; details: Table 11
Procedure: Cataleptic Analysis. In laboratory tests, catalepsy is characterized by the inability of an animal to correct its position after placement in an unnatural posture. […] To circumvent these potential confounding factors, tests are performed on an animal only once in a quiet, controlled environment.
Catalepsy Assessment. […] Rats were given an IP injection of peptide (5 mg/Kg), saline, or haloperidol (1 mg/kg). After 3 hours, catalepsy was measured using the horizontal bar test. Briefly, the front paws were placed directly on a horizontal bar 5 mm in diameter placed 7.5 cm above the cage floor. The rat was held in this position for 3 sec and then released. The time from release until the paws return to the cage floor was measured and recorded. A cut-off time of 30 sec was observed; this indicated a fully cataleptic animal as cataleptic animals are frozen to the bar. […] Measures were repeated every 30 min for 4 hr. Data are means±SEM (p<0.01).
After 2 h, catalepsy was measured using the horizontal bar test. Data are means±SEM (p<0.01).

## CC(C)C[C@H](NC(=O)[C@@H](NC(=O)[C@H](Cc1ccc(O)cc1)NC(=O)[C@@H]1CCCN1C(=O)[C@H](CCCNC(=N)N)NC(=O)[C@@H](C)CCCCCN)C(C)(C)C)C(=O)O [ABS201, hLys-Arg-Pro-Tyr-t-Leu-Leu] (X1-RPY[Tle]L-OH)
[1]; rat, in vivo
  lower limit for the MTD: ≥ 100 times the ED50
[1]; single acute dose I.P.
  Toxicity, dose without toxicity: (>100 × ED50)
[1]; single acute dose at 100x ED50 administered I.P.
  Toxicity: No
Mouse bone marrow cells
  micronucleus study result: inactive
[2]; IV 1 mg/kg
  time by which plasma levels decreased below the LLOD: ≤ 45 min
[2]; IV 5 mg/kg
  clearance as % of rat hepatic blood flow: 74.02%
  time over which measurable in whole blood: up to 120 minutes
[2]; IV 5 mg/kg or oral 50 mg/kg, LC/MS/MS
  time over which detectable in the blood and brain: up to 120 minutes
[3]; in situ looped models
  segment with maximal uptake: intra-duodenum exhibiting the maximal amount of uptake
  site of absorption in the GI tract: absorbed almost entirely in the intestine
[3]; intra-stomach
  uptake in the stomach: Virtually no ABS201 is taken up in the stomach
[4]
  distribution into blood cellular elements: about 33%
[5]
  binding to plasma proteins: little or no binding
[6]
  hERG study result: inactive
CYP1A2
  inhibition of substrate binding: No inhibition
CYP2B6
  inhibition of substrate binding: No inhibition
CYP2C9
  inhibition of substrate binding: No inhibition
CYP2D6
  inhibition of substrate binding: No inhibition
CYP3A4
  inhibition of substrate binding: No inhibition
CYP2C19
  inhibition of substrate binding: No inhibition
[7]
  Catalepsy: No
